Earlier results in patent US20200170998A1, “UMBILICAL CORD BLOOD SERUM AND UMBILICAL CORD BLOOD PLASMA PREPARATION IN COMBINATION WITH A NONSTEROIDAL ANTI-INFLAMMATORY DRUG AND FREEZE-DRYING THE COMPOSITION” (CELLULA LLC, priority 2018, published 2020).

tested on: corneal epithelial cells; settings: in-vitro; control a balanced salt solution

| SMILES | toxicity on corneal epithelial cells |
| --- | --- |
| O=C(O)Cc1ccccc1Nc1c(Cl)cccc1Cl [Diclofenac] | significant cellular toxicity |
| CC(=O)[C@@]1(O)CC[C@H]2[C@@H]3C[C@H](C)C4=CC(=O)C=C[C@]4(C)[C@@]3(F)[C@@H](O)C[C@@]21C [Flourometholone] | most severe toxicity |
| Nc1c(CC(=O)O)cccc1C(=O)c1ccc(Br)cc1 [bromfenac] | less cellular damage and showed no difference with the control |
| CC(C(=O)O)c1ccc2c(c1)Cc1cccnc1O2 (stereo not shown) [pranoprofen] | less cellular damage and showed no difference with the control |
